Data set [1] can be described thus: Thermal dissociation of oligonucleotide hairpin duplexes. The format is physicochemical. The procedure: Experiments were also performed to evaluate the stability of duplexes formed by oligonucleotides containing phosphoramidate linkages in both complementary strands.
The stability of duplexes formed by oligonucleotides containing phosphoramidate linkages in both complementary strands was evaluated essentially as described above.
All the molecules in FIG. 6 were constructed using 2'-deoxyribonucleotides.
(§1) Triplex thermal stabilities were evaluated essentially as described above for duplexes.

In a further data set the test system is BV173 cells. The experiment in a line: Leukemic cell proliferation, BV173 cells (B2A2 BCR/ABL fusion junction). The conditions noted are these: for shape of inhibition curves at later time points after partial release of inhibition: FIGS. 14 and 18; for inhibition of BV173 leukemia cell growth relative to phosphoramidate oligonucleotide 6: comparable concentrations.

For data set [2], the system named is dA10:dT10 duplex region of the hairpin DNA target d(A10 C4 T10). The experiment in a line: Triplex melting with hairpin DNA target d(A10 C4 T10). Type of data set: binding. The protocol:
Melting curves were obtained for triplexes formed by the decathymidilic phosphoramidate […] and the dA10 :dT10 duplex region of the hairpin DNA target d(A10 C4 T10) (FIG. 3, experiment 7).
as §1
FIGS. 7A to 7D present exemplary triplex melting curves. FIGS. 7A and 7C present normalized absorbance at 260 nm plotted against temperature. FIGS. 7B and 7D present normalized absorbance at 284 nm plotted against temperature. In the figures: the triplexes formed by double stranded DNA and phosphoramidate Oligonucleotide 3 correspond to the black circle line; triplexes formed with phosphodiester Oligonucleotide 1 correspond to open squares line).
The data correspond to FIG. 3, experiment 7 where curves (A) and (C) were thermal stability studies performed using buffers A and B, respectively, with hyperchromicity monitored at 260 nm. Curves (B) and (D) are (A) and (C) respectively, but where hyperchromicity was monitored at 284 nm.

Data set [3] deals with 24-mer hairpin target d(A10 C4 T10). The experiment in a line: Gel band mobility shift assay, 24-mer hairpin target. Type of data set: binding. As to conditions: native conditions, 10 mM MgCl2, 80 mM Tris-borate, pH 8.2, 10° C. The procedure:
Triplex structures were further evaluated using gel band mobility shift assays.
Gel band mobility shift assay conditions were as follows: 20% acrylamide, 5% bisacrylamide in 10 mM MgCl2, 80 mM Tris-borate buffer, pH 8.2, 10° C. Gels were typically run under native (non-denaturing) conditions. In the figure the lanes are as follows: 1--10-mer phosphodiester Oligonucleotide 1; 2--10-mer phosphoramidate Oligonucleotide 3; 3--24-mer hairpin target d(A10 C4 T10) (FIG. 3, experiment 7).
The gel was stained with STAINS-ALL™ (Kodak, Rochester N.Y.) and imaged on a Molecular Dynamics (Sunnyvale, Calif.) densitometer.

The next data set relates to control cell lines. Kind of data set: Cytotoxicity of antisense oligonucleotides in leukemia cell culture. The format is cell-based. The source says: FIGS. 10 through 19 show the results of anti-sense oligonucleotides, having either phosphoramidate (N3'→P5') (FIGS. 10-15) or phosphorothioate (FIGS. 16-19) intersubunit linkages, on leukemia cell proliferation for different BCR-ABL leukemia cell lines and control cell lines.
(§2) N3'→P5' phosphoramidate linkage containing anti-sense oligonucleotides were synthesized which were complementary to the BCR/ABL fusion junction (B2A2) in leukemic cell line BV173. The following assay measures leukemic cell proliferation and is performed essentially as described by Anfossi, et al. (1989).
(§3) Cells (5×10^4) were placed in 0.2 ml of liquid suspension culture (Iscove's modified Dulbecco's modified medium with 2% human AB serum--Life Technologies, Gaithersburg, Md.).
(§4) The oligonucleotides were administered to the cultures at 24 hour intervals for three days (days 0, 1 and 2) to achieve the incremental concentrations shown in the legends of FIGS. 10-19 (all concentrations in μg/mL), for example, FIG. 10--40/20/20; 20/10/10; 10/5/5; and 5/2.5/2.5. Note that, for example, 40/20/20 reflects a final total concentration of 80 μg/ml in the cell culture medium after the last oligonucleotide addition. Cell counts were performed by standard methods.

The subject of the next data set is complementary DNA strand. The experiment in a line: Thermal dissociation of duplexes with complementary DNA strand. Type of data set: binding. The procedure:
(§5) The hybridization properties of the phosphoramidate analogs were evaluated relative to complementary DNA or RNA strands having standard phosphodiester intersubunit linkages. The thermal stability data for duplexes generated from phosphoramidate analogs and phosphodiester oligomers are summarized in FIG. 3 (Example 1).
(§6) The same trend is true for the mixed-base undecanucleotide 6 (FIG. 3), where the Tm 's of duplexes with complementary DNA and RNA strands were 49.2° C. and 72.4° C., respectively, (FIG. 3, experiments 13, 14).
Thermal dissociation curves were obtained using a Carry IE spectrophotometer (Varian, Palo Alto, Calif.) that was equipped with a temperature controller (Varian). […]
(§7) The molar extinction coefficients used for oligo(dT), poly(dA) and poly(A) were 8.2, 8.4, and 10.2 A260 ×10^3, respectively. An extinction coefficient of 109 A260 Units/μM was used for the mixed-based oligomers--the extinction coefficient was calculated from the table compiled by P. N. Borer (1975).
Reaction solutions were equilibrated at 0° C. and the absorbance at 260 nm was followed as the temperature was increased in increments of 3° C. per 5 minutes. The fraction of an oligomer in the bound state, α,at a given temperature was determined by use of upper and lower base lines as described by Abergo, et al. (1981). […]

For another data set, the system named is complementary RNA strand. The experiment in a line: Thermal dissociation of duplexes with complementary RNA strand. The format is binding. The procedure: as §5, §6
Thermal dissociation curves were obtained using a Carry IE spectrophotometer (Varian, Palo Alto, Calif.) that was equipped with a temperature controller (Varian). The reaction solutions contained equivalent concentrations of oligomer and complement (approximately 6 μM in oligomer strand) in 15 mM phosphate buffer at pH 7.05, with NaCl added to give a total Na+ concentration of 100 mM.
as §7
Reaction solutions were equilibrated at 0° C. and the absorbance at 260 nm was followed as the temperature was increased in increments of 3° C. per 5 minutes. The fraction of an oligomer in the bound state, α,at a given temperature was determined by use of upper and lower base lines as described by Abergo, et al. (1981). Tm values are defined as the temperature at which α=0.5. Plots of Ink (Marky, et al., 1987) versus 1/T were linear for these compounds.
In the table, Tm is the temperature at the midpoint of the melting curve; np is the abbreviation for the 3'--NHP(O)(O^-)0-5' phosphoramidate link.
The concentrations of oligonucleotides were typically at 5 μM oligomer strands. Buffer A (10 mM Tris HCl, 150 mM NaCl, pH 7.02) was used for duplex thermal stability studies.

The test system of data set [4] is single mismatch RNA target. Kind of data set: Thermal dissociation of duplexes with single mismatch RNA target. Type of data set: binding. As to conditions: mismatch discrimination.
Experimental: Hybridization of the phosphoramidate oligonucleotides with complementary nucleic acids is sequence specific and determined by the proper Watson-Crick base pairing.
Reaction solutions were equilibrated at 0° C. and the absorbance at 260 nm was followed as the temperature was increased in increments of 3° C. per 5 minutes. […] Tm values are defined as the temperature at which α=0.5.
Data set [5] relates to 26-mer hairpin target (SEQ ID NO:22). Kind of data set: Gel band mobility shift assay, 26-mer hairpin target. The format is binding. The conditions noted are these: native conditions, essentially as for Oligonucleotide 3. An excerpt:
The conditions of the gel band mobility shift assay were essentially as described above.

Another data set deals with HL60 cells. Kind of data set: Leukemic cell proliferation / cytotoxicity, HL60 cells (no BCR/ABL breakpoint). The format is cell-based. The procedure:
as §2
(§8) Briefly, FIG. 10 illustrates the effect of BCR-ABL oligomers on leukemic cell proliferation of BV173 cells carrying the B2A2-type break points. BV173 is a leukemic cell line with the B2A2 BCR/ABL fusion junction (Pegoraro, et al., 1983). HL60 is a promyelocytic leukemic cell line with a normal c-abl locus (Collins, et al., 1977). K562 is a leukemic cell line with the B3A2 BCR/ABL fusion junction (Seelig, et al., 1993).
as §3, §4

Another data set has as its system K562 cells. The experiment in a line: Leukemic cell proliferation / cytotoxicity, K562 cells (B3A2 BCR/ABL fusion junction). The format is cell-based. The conditions noted are these: FIG. 15. The procedure: as §2, §8, §3, §4
Where [6] appears, read: versus Oligodeoxyribonucleotide 4.

Here are results for five substances from patent publication US5965720A, “Oligonucleotide N3'→P5' phosphoramidates” (Lynx Therapeutics, Inc., priority 1997, dated 1999).

“Also recorded” adds a separate entry of the source. [np] = N3'→P5' phosphoramidate

Turning to d(A10 C4 T10) [hairpin duplex], the “Tm of the hairpin duplex” value in data set [1] (buffer A) turned out to be 55.7 °C; in data set [1] (buffer B (10 mM MgCl2)), 61.5 °C.
For “16mer phosphorothioate oligonucleotide (SEQ ID NO:27): 16mer phosphorothioate complementary to the B3A2 BCR/ABL fusion junction; 2 base pair mismatch to B2A2 (antisense GAGTTCAAAAGCCCTT; all phosphorothioate, sugars by position and methylation of C not given here)”, in the data set with BV173 cells (all concentrations (FIG. 17)), the “tolerance by BV173 cells” value is listed as “tolerated by the cells”.
Regarding “phosphodiester decathymidilic acid [Oligonucleotide 1, reference compound]”, the “triplex formation judged by melting curves” value in data set [2] (buffers A and B, 260 and 284 nm) was “no corresponding triplex was formed; also recorded: did not form triplexes”. Also, in data set [3], the “triplex formation in gel band mobility shift assay” value is listed as “no corresponding triplex was formed; also recorded: fails to form a triplex”.
In the case of “phosphorothioate 16-mer: oligonucleotide 16-mer having fully modified phosphorothioate intersubunit linkages, containing the SEQ ID NO:6 sequence (antisense AAGGGCTTCTTCCTTA; all phosphorothioate, sugars by position and methylation of C not given here)”, the cytotoxicity result with control cell lines was “absence of cytotoxicity”. In addition, in the data set on BV173 cells, the “shape of inhibition curves at later time points after partial release of inhibition” value is on record as “steep upward inflection at later time points” and the “inhibition of BV173 leukemia cell growth relative to phosphoramidate oligonucleotide 6” value is reported as “not effective at inhibiting BV173 leukemia cell proliferation”. Besides, the “concentrations of release of inhibition relative to phosphoramidate oligonucleotide 6” value with BV173 cells (FIGS. 18 and 19) is “much lower concentrations”. Further, in the data set on BV173 cells (listed as 16-mer (SEQ ID NO:26)), the “inhibition of BV173 leukemia cell growth relative to phosphoramidate oligonucleotide 6” value is on record as “not as effective as oligonucleotide 6”.
For “Oligonucleotide 6: fully modified N3'→P5' phosphoramidate 11-mer complementary to the BCR-ABL junction B2A2 (antisense CTTCTTCCTTA; all [np], sugars by position and methylation of C not given here)”, the “Tm of duplex with complementary DNA strand” value in the data set with complementary DNA strand (buffer A) is 49.2 °C. Moreover, the “Tm increase relative to parent phosphodiester Oligodeoxyribonucleotide 4, DNA strand” value in the data set with complementary DNA strand (setting [6]) came to 11.7 °C. For the same substance, the “Tm of duplex with complementary RNA strand” value in the data set with complementary RNA strand (buffer A) came to 72.4 °C. Also, the “Tm increase relative to parent phosphodiester Oligodeoxyribonucleotide 4, RNA strand” value in the data set with complementary RNA strand (setting [6]) stood at 22.9 °C. Moreover, the “duplex stability increase relative to homologous RNA oligomer 5, same RNA target” value in the data set on complementary RNA strand (versus RNA oligomer 5) came to 18.0 °C. Moreover, the “ΔTm with single mismatch RNA target versus fully complementary” value in data set [4] is -12.2 °C. Besides, the results for the Tm of triplex in data set [2] (close to physiological conditions (buffer A)) and in data set [2] (magnesium-containing buffer (buffer B)) were 32 °C and 42.2 °C, respectively. In data set [5], the “triplex formation in gel band mobility shift assay” value is on record as “stable triplex formation; also recorded: confirmed by gel band mobility shift assay”. The “cytotoxicity to HL60 cells” value in the data set on HL60 cells is reported as “no apparent cytotoxicity; also recorded: negligible toxicity”. For the same substance, the “tolerance by HL60 cells” value in the data set on HL60 cells (all concentrations (FIG. 11)) was “well tolerated by the cells”. In addition, the “effect on proliferation of K562 cells / cytotoxicity” value in the data set with K562 cells is given as “essentially no effect on the proliferation”. Moreover, in the data set with BV173 cells, the “shape of inhibition curves at later time points after partial release of inhibition” value was “downward inflection at later time points”. In addition, the “inhibition of BV173 leukemia cell proliferation” value in the data set on BV173 cells (all concentrations / FIG. 10 down to 5/2.5/2.5 μg/ml on days 0, 1, 2) was “extremely effective at inhibiting the growth of the leukemia cells”; in the data set on BV173 cells (lowest concentrations 0.3125/0.15625/0.15625 μg/mL (FIG. 12)) it was “extremely effective at inhibiting leukemia cell proliferation”.
